Test results reported in ChEMBL document CHEMBL1124085, “Flavins as potential antimalarials. 1. 10-(Halophenyl)-3-methylflavins” (1988).
Where “and” joins values, the source holds several entries; their conditions need not be identical. Identical values can stand only once.

Assays:
Type in all cases: functional
Mus musculus [1] = assay: Oral antimalarial activity against Plasmodium vinckei vinckei in mice (Mus musculus) measured as % cured and increase in MST (days) at 100 mg/kg dose.
Mus musculus [2] = assay: Oral antimalarial activity against Plasmodium vinckei vinckei in mice (Mus musculus) measured as increase in mean survival time at 75 mg/kg dose.
Mus musculus [3] = assay: Parenteral antimalarial activity against Plasmodium vinckei in mice (Mus musculus) measured as increase in mean survival time at 15 mg/kg dose.
Mus musculus [4] = assay: Parenteral antimalarial activity against Plasmodium vinckei vinckei in mice (Mus musculus) measured as increase in mean survival time at 30 mg/kg dose.
Mus musculus [5] = assay: Oral antimalarial activity against Plasmodium vinckei vinckei in mice (Mus musculus) measured as increase in mean survival time at 100 mg/kg dose.
Mus musculus [6] = assay: Oral antimalarial activity against Plasmodium vinckei in mice (Mus musculus) measured as % cured and increase in MST (days) at 75 mg/kg dose.
Mus musculus [7] = assay: Oral antimalarial activity against Plasmodium vinckei in mice (Mus musculus) measured as increase in mean survival time at 25 mg/kg dose.
Mus musculus [8] = assay: Oral antimalarial activity against Plasmodium vinckei in mice (Mus musculus) measured as increase in mean survival time at 150 mg/kg dose.
Mus musculus [9] = assay: Parenteral antimalarial activity against Plasmodium vinckei vinckei in mice (Mus musculus) measured as % cured and increase in MST (days) at 25 mg/kg dose.
Mus musculus [10] = assay: Oral antimalarial activity against Plasmodium vinckei in mice (Mus musculus) measured as % cured and increase in MST (days) at 25 mg/kg dose.
Mus musculus [11] = assay: Oral antimalarial activity against Plasmodium vinckei vinckei in mice (Mus musculus) measured as increase in mean survival time at 50 mg/kg dose.
Mus musculus [12] = assay: Oral antimalarial activity against Plasmodium vinckei vinckei in mice (Mus musculus) measured as % cured and increase in MST (days) at 150 mg/kg dose.
Mus musculus [13] = assay: Parenteral antimalarial activity against Plasmodium vinckei vinckei in mice (Mus musculus) measured as % cured and increase in MST (days) at 30 mg/kg dose.
Mus musculus [14] = assay: Parenteral antimalarial activity against Plasmodium vinckei vinckei in mice (Mus musculus) measured as % cured and increase in MST (days) at 10 mg/kg dose.
Mus musculus [15] = assay: Parenteral antimalarial activity against Plasmodium vinckei in mice (Mus musculus) measured as increase in mean survival time at 10 mg/kg dose.
Mus musculus [16] = assay: Oral antimalarial activity against Plasmodium vinckei in mice (Mus musculus) measured as % cured and increase in MST (days) at 50 mg/kg dose.
Mus musculus [17] = assay: Parenteral antimalarial activity against Plasmodium vinckei vinckei in mice (Mus musculus) measured as increase in mean survival time at 25 mg/kg dose.
Mus musculus [18] = assay: Parenteral antimalarial activity against Plasmodium vinckei in mice (Mus musculus) measured as % cured and increase in MST (days) at 15 mg/kg dose.
Mus musculus [19] = assay: Parenteral antimalarial activity against Plasmodium vinckei vinckei in mice (Mus musculus) measured as % cured and increase in MST (days) at 20 mg/kg dose.
Mus musculus [20] = assay: Parenteral antimalarial activity against Plasmodium vinckei vinckei in mice (Mus musculus) measured as increase in mean survival time at 20 mg/kg dose.
Mus musculus [21] = assay: Oral antimalarial activity against Plasmodium vinckei in mice (Mus musculus) measured as increase in mean survival time at 25 mg/kg dose
Mus musculus [22] = assay: Parenteral antimalarial activity against Plasmodium vinckei in mice (Mus musculus) measured as % cured and increase in MST (days) at 30 mg/kg dose.
Mus musculus [23] = assay: Parenteral antimalarial activity against Plasmodium vinckei in mice (Mus musculus) measured as % cured and increase in MST (days) at 25 mg/kg dose.
Mus musculus [24] = assay: Oral antimalarial activity against Plasmodium vinckei vinckei in mice (Mus musculus) measured as % cured and increase in MST (days) at 100 mg/kg dose
Mus musculus [25] = assay: Oral antimalarial activity against Plasmodium vinckei in mice (Mus musculus) measured as % cured and increase in MST (days) at 75 mg/kg dose
Mus musculus [26] = assay: Oral antimalarial activity against Plasmodium vinckei vinckei in mice (Mus musculus) measured as increase in mean survival time at 50 mg/kg dose
Mus musculus [27] = assay: Parenteral antimalarial activity against Plasmodium vinckei in mice (Mus musculus) measured as increase in mean survival time at 10 mg/kg dose
Mus musculus [28] = assay: Oral antimalarial activity against Plasmodium vinckei in mice (Mus musculus) measured as increase in mean survival time at 100 mg/kg dose
Mus musculus [29] = assay: Parenteral antimalarial activity against Plasmodium vinckei in mice (Mus musculus) measured as % cured and increase in MST (days) at 20 mg/kg dose
Mus musculus [30] = assay: Oral antimalarial activity against Plasmodium vinckei in mice (Mus musculus) measured as increase in mean survival time at 150 mg/kg dose
Mus musculus [31] = assay: Oral antimalarial activity against Plasmodium vinckei vinckei in mice (Mus musculus) measured as increase in mean survival time at 75 mg/kg dose
Mus musculus [32] = assay: Oral antimalarial activity against Plasmodium vinckei vinckei in mice (Mus musculus) measured as % cured and increase in MST (days) at 50 mg/kg dose
Mus musculus [33] = assay: Oral antimalarial activity against Plasmodium vinckei vinckei in mice (Mus musculus) measured as % cured and increase in MST (days) at 150 mg/kg dose
Mus musculus [34] = assay: Parenteral antimalarial activity against Plasmodium vinckei vinckei in mice (Mus musculus) measured as % cured and increase in MST (days) at 15 mg/kg dose
Mus musculus [35] = assay: Parenteral antimalarial activity against Plasmodium vinckei in mice (Mus musculus) measured as increase in mean survival time at 15 mg/kg dose
Mus musculus [36] = assay: Oral antimalarial activity against Plasmodium vinckei in mice (Mus musculus) measured as % cured and increase in MST (days) at 25 mg/kg dose
Mus musculus [37] = assay: Parenteral antimalarial activity against Plasmodium vinckei in mice (Mus musculus) measured as % cured and increase in MST (days) at 10 mg/kg dose
Mus musculus [38] = assay: Parenteral antimalarial activity against Plasmodium vinckei in mice (Mus musculus) measured as increase in mean survival time at 30 mg/kg dose
Mus musculus [39] = assay: Parenteral antimalarial activity against Plasmodium vinckei in mice (Mus musculus) measured as % cured and increase in MST (days) at 30 mg/kg dose
Mus musculus [40] = assay: Parenteral antimalarial activity against Plasmodium vinckei in mice (Mus musculus) measured as increase in mean survival time at 20 mg/kg dose
Mus musculus [41] = assay: Parenteral antimalarial activity against Plasmodium vinckei vinckei in mice (Mus musculus) measured as increase in mean survival time at 25 mg/kg dose
Mus musculus [42] = assay: Parenteral antimalarial activity against Plasmodium vinckei in mice (Mus musculus) measured as % cured and increase in MST (days) at 25 mg/kg dose

SMILES	Cured (Mus musculus [1])	MST (Mus musculus [2])	MST (Mus musculus [5])	Cured (Mus musculus [6])	MST (Mus musculus [7])	MST (Mus musculus [8])	Cured (Mus musculus [9])	Cured (Mus musculus [10])	MST (Mus musculus [11])	Cured (Mus musculus [12])	Cured (Mus musculus [13])	Cured (Mus musculus [14])	Cured (Mus musculus [16])	Cured (Mus musculus [18])	Cured (Mus musculus [19])	Cured (Mus musculus [24])	Cured (Mus musculus [25])	Cured (Mus musculus [32])	Cured (Mus musculus [33])	Cured (Mus musculus [34])	other results
Cn1c(=O)nc2n(-c3cc(Cl)ccc3Cl)c3ccccc3nc-2c1=O	0%	0 days	0 days	0%	0 days	0 days	0%	0%	0 days	0%	0%	0%	0%	0%	0%						MST (Mus musculus [3]): 0 days; MST (Mus musculus [4]): 0 days; MST (Mus musculus [15]): 0 days; MST (Mus musculus [17]): 0 days; MST (Mus musculus [20]): 0 days
Cn1c(=O)nc2n(-c3cccc(F)c3)c3ccccc3nc-2c1=O	80%	2.5 days	0 days	20%		0 days	0%	40%	0 days	40%	0%	0%	40%	0%	40%						MST (Mus musculus [21]): 0 days; MST (Mus musculus [3]): 0.2 days; MST (Mus musculus [4]): 2.2 days; MST (Mus musculus [15]): 0 days; MST (Mus musculus [17]): 2 days; MST (Mus musculus [20]): 1.7 days
O=c1nc2n(-c3ccc(Cl)cc3)c3ccccc3nc-2c(=O)[nH]1	0%	0 days	0 days	0%	0 days	0 days	0%	0%	0 days	0%	0%	0%	0%	0%	0%						MST (Mus musculus [22]): 0 days; MST (Mus musculus [23]): 0 days; MST (Mus musculus [14]): 0 days; MST (Mus musculus [18]): 0 days; MST (Mus musculus [19]): 0 days
Cn1c(=O)nc2n(-c3ccc(Cl)cc3)c3ccccc3nc-2c1=O																90%	85%	75%	90%	95%	MST (Mus musculus [26]): 1.4 days; MST (Mus musculus [27]): 1.5 days; MST (Mus musculus [28]): 2.7 days; MST (Mus musculus [21]): 2.4 days; Cured (Mus musculus [29]; 20 mg/kg): 100% and 90%; MST (Mus musculus [30]): 2.7 days; MST (Mus musculus [31]): 1 days; MST (Mus musculus [35]): 1 days; Cured (Mus musculus [36]): 45%; Cured (Mus musculus [37]): 60%
Cn1c(=O)nc2n(-c3ccc(F)cc3)c3ccccc3nc-2c1=O																0%	0%	0%	20%	0%	MST (Mus musculus [26]): 0.8 days; MST (Mus musculus [27]): 0 days; MST (Mus musculus [28]): 1 days; MST (Mus musculus [38]): 0.2 days; MST (Mus musculus [21]): 0 days; Cured (Mus musculus [29]): 20%; MST (Mus musculus [30]): 2.3 days; Cured (Mus musculus [39]): 0%; MST (Mus musculus [40]): 0.5 days; MST (Mus musculus [31]): 0.6 days; MST (Mus musculus [35]): 0.8 days; MST (Mus musculus [41]): 0.8 days; Cured (Mus musculus [36]): 0%; Cured (Mus musculus [42]): 0%; Cured (Mus musculus [37]): 0%
Cn1c(=O)nc2n(-c3ccc(Cl)cc3Cl)c3ccccc3nc-2c1=O	80%	1 days	1.5 days	40%	0 days	1.5 days	0%	0%	1.3 days	60%	0%	0%	0%	0%	0%						MST (Mus musculus [3]): 0.5 days; MST (Mus musculus [4]): -1 days; MST (Mus musculus [15]): 1.7 days; MST (Mus musculus [17]): -1.2 days; MST (Mus musculus [20]): 0 days
Cn1c(=O)nc2n(-c3ccc(Br)cc3)c3ccccc3nc-2c1=O																100%	100%	100%	100%	100%	MST (Mus musculus [27]): 2 days; MST (Mus musculus [38]): 13 days; MST (Mus musculus [21]): 3.5 days; Cured (Mus musculus [29]): 100%; Cured (Mus musculus [39]): 40%; MST (Mus musculus [41]): 14 days; Cured (Mus musculus [36]): 60%; Cured (Mus musculus [42]): 60%; Cured (Mus musculus [37]): 80%
Cn1c(=O)nc2n(-c3ccc(Cl)c(Cl)c3)c3ccccc3nc-2c1=O	0%	0.5 days	0.5 days	0%	0 days		80%	0%	0 days	40%	60%	0%	0%	60%	100%						MST (Mus musculus [22]): 1 days; MST (Mus musculus [23]): 0 days; MST (Mus musculus [14]): 0.5 days; MST (Mus musculus [18]): 0.5 days
Cn1c(=O)nc2n(-c3cccc(Br)c3)c3ccccc3nc-2c1=O																60%	40%	20%	60%	0%	MST (Mus musculus [28]): 1.5 days; MST (Mus musculus [38]): 1 days; MST (Mus musculus [21]; 25 mg/kg): 1 days and 2 days; Cured (Mus musculus [29]): 20%; MST (Mus musculus [30]): 1 days; Cured (Mus musculus [39]): 60%; MST (Mus musculus [40]): 1.4 days; MST (Mus musculus [31]): 1.5 days; MST (Mus musculus [35]): 1.3 days; MST (Mus musculus [41]): 3 days; Cured (Mus musculus [36]): 0%; Cured (Mus musculus [42]): 60%
Cc1cc(Cl)ccc1-n1c2nc(=O)n(C)c(=O)c-2nc2ccccc21	60%	3.2 days	2 days	40%	0.5 days	1.5 days	0%	0%	1.5 days	40%	0%		80%	0%	0%						MST (Mus musculus [3]): 1.2 days; MST (Mus musculus [4]): -2 days; MST (Mus musculus [17]): -1.4 days; MST (Mus musculus [20]): 1.2 days
Cn1c(=O)nc2n(-c3cccc(Cl)c3)c3ccccc3nc-2c1=O																0%	20%	0%	60%	0%	MST (Mus musculus [26]): 0 days; MST (Mus musculus [28]): 1.2 days; MST (Mus musculus [38]): 0 days; Cured (Mus musculus [29]): 0%; MST (Mus musculus [30]): 2.5 days; Cured (Mus musculus [39]): 0%; MST (Mus musculus [40]): 0.2 days; MST (Mus musculus [31]): 4.3 days; MST (Mus musculus [35]): 0 days; MST (Mus musculus [41]): 0 days; Cured (Mus musculus [42]): 0%
